In patent US3954972A, “Antibiotic A-26771 factor” (Eli Lilly and Company, priority 1975, dated 1976):
“Also recorded” adds a separate entry of the source. Where two headings read alike, the source gives them in different places.

What was measured:
[1] = test system: Saccharomyces pastorianum; test: microbe, parasite or virus in culture; type: cell-based
Mycoplasma hyopneumoniae = test: microbe, parasite or virus in culture; conditions: Mesomycoplasma hyopneumoniae
Candida tropicalis = test: microbe, parasite or virus in culture
Sarcina lutea = test: microbe, parasite or virus in culture; type: cell-based; conditions: Micrococcus luteus
Bacillus subtilis = test: microbe, parasite or virus in culture; type: cell-based
Staphylococcus aureus [2] = test: microbe, parasite or virus in culture
Verticillium albo-atrum = test: in vitro susceptibility (MIC), Verticillium albo-atrum; type: cell-based
Mycoplasma gallisepticum = test: microbe, parasite or virus in culture; conditions: Mycoplasmoides gallisepticum
Ceratocystis ulmi = test: in vitro susceptibility (MIC), Ceratocystis ulmi; type: cell-based
Xanthomonas phaseoli = test: microbe, parasite or virus in culture
Pasteurella multocida = test: microbe, parasite or virus in culture
Mycoplasma granularum = test: microbe, parasite or virus in culture; conditions: Acholeplasma granularum
[3] = test system: Trichophyton mentagrophytes; test: microbe, parasite or virus in culture
Streptococcus faecalis = test: microbe, parasite or virus in culture; conditions: Enterococcus faecalis
Neurospora crassa = test: microbe, parasite or virus in culture; type: cell-based
Erwinia amylovora = test: microbe, parasite or virus in culture
Staphylococcus aureus [4] = test: microbe, parasite or virus in culture; type: cell-based
Mycoplasma hyosynoviae = test: microbe, parasite or virus in culture
Botrytis cinerea = test: in vitro susceptibility (MIC), Botrytis cinerea; type: cell-based
Mycoplasma synoviae = test: microbe, parasite or virus in culture; conditions: Mycoplasmopsis synoviae
[5] = test system: Trichophyton mentagrophytes; test: microbe, parasite or virus in culture; type: cell-based
Vibrio coli = test: microbe, parasite or virus in culture; conditions: Campylobacter coli
[6] = test system: Coxsackie virus A-21 (COE strain); test: microbe, parasite or virus in culture; type: cell-based; conditions: read-out: diameter of zone of virus inhibition
Mycobacterium avium = test: disc-plate assay, Mycobacterium avium; type: cell-based
electrometric titration = type: physicochemical; conditions: 66 percent dimethylformamide
White Swiss mice = test: survival of mice after intraperitoneal injection; conditions: groups of four mice
[7] = test system: several viruses, including polioviruses and Coxsackie virus; type: cell-based
Candida albicans = test: microbe, parasite or virus in culture; type: cell-based
Serratia marcescens = test: microbe, parasite or virus in culture; type: cell-based
Escherichia coli = test: microbe, parasite or virus in culture; type: cell-based
poliovirus III = type: in vivo, mice; conditions: for Z (zone diameter of viral inhibition by serum): BSC1 cells
Type III poliovirus = test: microbe, parasite or virus in culture; type: cell-based
Fusarium moniliforme = test: microbe, parasite or virus in culture; type: cell-based; conditions: Fusarium verticillioides
Klebsiella pneumoniae = test: microbe, parasite or virus in culture; type: cell-based
[8] = 29 mg./kg. intraperitoneal, One Hour
[9] = 29 mg./kg. intraperitoneal, Six Hours
[10] = 58 mg./kg. intraperitoneal, One Hour
[11] = 58 mg./kg. intraperitoneal, Six Hours
[12] = 117 mg./kg. intraperitoneal, One Hour
[13] = 234 mg./kg. intraperitoneal, One Hour
[14] = Enterovirus C, read-out: diameter of zone of virus inhibition
[15] = Enterovirus C; read-out: diameter of zone of virus inhibition

CC1CCCCCCCCCC(OC(=O)CCC(=O)O)C(=O)/C=C/C(=O)O1 (centres unmarked) [Factor B, mono(16-methyl-2,5-dioxooxacyclohexadec-3-en-6-yl) succinate]
zone of inhibition at 100 µg/mL [1]: 12 mm | zone of inhibition at 1000 µg/mL [1]: 25 mm | MIC (Mycoplasma hyopneumoniae): 12.5 µg/mL | MIC (Candida tropicalis): 100 µg/mL | zone of inhibition at 100 µg/mL (Sarcina lutea): 12 mm | zone of inhibition at 1000 µg/mL (Sarcina lutea): 22 mm | zone of inhibition at 1000 µg/mL (Bacillus subtilis): 14 mm | MIC (Staphylococcus aureus [2]): < 1.56 µg/mL | MIC (Verticillium albo-atrum): 50 µg/mL | MIC (Mycoplasma gallisepticum): 3.12 µg/mL | MIC (Ceratocystis ulmi): 6.25 µg/mL | MIC (Xanthomonas phaseoli): 50 µg/mL | MIC (Pasteurella multocida): 6.25 µg/mL | MIC (Mycoplasma granularum): 50 µg/mL | MIC [3]: 6.25 µg/mL | MIC (Streptococcus faecalis): 25 µg/mL | zone of inhibition at 1000 µg/mL (Neurospora crassa): 13 mm | MIC (Erwinia amylovora): < 0.78 µg/mL | zone of inhibition at 100 µg/mL (Staphylococcus aureus [4]): 15 mm | zone of inhibition at 1000 µg/mL (Staphylococcus aureus [4]): 24 mm | MIC (Mycoplasma hyosynoviae): 12.5 µg/mL | MIC (Botrytis cinerea): 12.5 µg/mL | MIC (Mycoplasma synoviae): 12.5 µg/mL | zone of inhibition at 1000 µg/mL [5]: 14 mm | MIC (Vibrio coli): 50 µg/mL

CN1C(=O)C2(Cc3ccccc3)SSC1(CO)C(=O)N2C (single isomer, unassigned) [Factor A, 3-benzyl-6-(hydroxymethyl)-1,4-dimethyl-3,6-epidithio-2,5-piperazinedione]
zone of inhibition at 100 µg/mL [1]: 19 mm | zone of inhibition at 1000 µg/mL [1]: 32 mm | zone of inhibition at 1.5 µg/mL [6]: 15 mm | zone of inhibition at 3.2 µg/mL [6]: 20 mm | zone of inhibition at 7.5 µg/mL [6]: 26 mm | zone of inhibition at 15 µg/mL [6]: 32 mm | zone of inhibition at 31.1 µg/mL [6]: 35 mm | zone of inhibition at 62.2 µg/mL [6]: 38 mm | zone of inhibition at 125 µg/mL [6]: 40 mm | zone of inhibition at 250 µg/mL [6]: 45 mm | zone of inhibition at 500 µg/mL [6]: 50 mm | zone of inhibition at 1000 µg/mL [6]: 52 mm | zone of inhibition at 100 µg/mL (Sarcina lutea): 18 mm | zone of inhibition at 1000 µg/mL (Sarcina lutea): 28 mm | zone of inhibition at 100 µg/mL (Bacillus subtilis): 11 mm | zone of inhibition at 1000 µg/mL (Bacillus subtilis): 22 mm | zone of inhibition at 1000 µg/mL (Mycobacterium avium): 14 mm | titratable groups (electrometric titration): did not indicate the presence of titratable groups | Survivors (White Swiss mice; [8]): 4 | Survivors (White Swiss mice; [9]): 4 | Survivors (White Swiss mice; [10]): 4 | Survivors (White Swiss mice; [11]): 4 | Survivors (White Swiss mice; [12]): 4 | Survivors (White Swiss mice; 117 mg./kg. intraperitoneal, Six Hours): 0 | Survivors (White Swiss mice; [13]): 4 | Survivors (White Swiss mice; 234 mg./kg. intraperitoneal, Six Hours): 0 | antiviral activity ([7]; tissue culture): demonstrated against several viruses, including polioviruses and Coxsackie virus; also recorded: antiviral agents; also recorded: antiviral activity | zone of inhibition at 1000 µg/mL (Candida albicans): 28 mm | zone of inhibition at 1000 µg/mL (Serratia marcescens): 14 mm | zone of inhibition at 1000 µg/mL (Escherichia coli): 12 mm | zone of inhibition at 100 µg/mL (Neurospora crassa): 13 mm | zone of inhibition at 1000 µg/mL (Neurospora crassa): 27 mm | Z (zone diameter of viral inhibition by serum) (poliovirus III; [8]): 20 millimeters | Z (zone diameter of viral inhibition by serum) (poliovirus III; [9]): 18 millimeters | Z (zone diameter of viral inhibition by serum) (poliovirus III; [10]): 24 millimeters | Z (zone diameter of viral inhibition by serum) (poliovirus III; [11]): 23 millimeters | Z (zone diameter of viral inhibition by serum) (poliovirus III; [12]): 29 millimeters | Z (zone diameter of viral inhibition by serum) (poliovirus III; [13]): 30 millimeters | antiviral activity in vivo (poliovirus III; biological activity of serum levels in mice): demonstrated in vivo from the biological activity of serum levels in mice | zone of inhibition at 100 µg/mL (Staphylococcus aureus [4]): 12 mm | zone of inhibition at 1000 µg/mL (Staphylococcus aureus [4]): 23 mm | zone of inhibition at 1.5 µg/mL (Type III poliovirus; [14]): 16 mm | zone of inhibition at 3.2 µg/mL (Type III poliovirus; [14]): 24 mm | zone of inhibition at 7.5 µg/mL (Type III poliovirus; [14]): 30 mm | zone of inhibition at 15 µg/mL (Type III poliovirus; [14]): 34 mm | zone of inhibition at 31.1 µg/mL (Type III poliovirus; [14]): 38 mm | zone of inhibition at 62.2 µg/mL (Type III poliovirus; [14]): 40 mm | zone of inhibition at 125 µg/mL (Type III poliovirus; [14]): 44 mm | zone of inhibition at 250 µg/mL (Type III poliovirus; [14]): 46 mm | zone of inhibition at 500 µg/mL (Type III poliovirus; [14]): 50 mm | zone of inhibition at 1000 µg/mL (Type III poliovirus; [14]): 50 mm | zone of inhibition at 100 µg/mL (Fusarium moniliforme): 10 mm | zone of inhibition at 1000 µg/mL (Fusarium moniliforme): 14 mm | zone of inhibition at 100 µg/mL [5]: 19 mm | zone of inhibition at 1000 µg/mL [5]: 27 mm | zone of inhibition at 1000 µg/mL (Klebsiella pneumoniae): 12 mm

CN1C(=O)C2(Cc3ccccc3)SSSSC1(CO)C(=O)N2C (centres unmarked) [Factor C, 3-benzyl-6-(hydroxymethyl)-1,4-dimethyl-3,6-epitetrathio-2,5-piperazinedione]
zone of inhibition at 100 µg/mL [6]: 40 mm | zone of inhibition at 1000 µg/mL [6]: 50 mm | antiviral activity [7]: demonstrated against several viruses, including polioviruses and Coxsackie virus; also recorded: antiviral agents; also recorded: antiviral activity | zone of inhibition at 100 µg/mL (Type III poliovirus; [15]): 40 mm | zone of inhibition at 1000 µg/mL (Type III poliovirus; [15]): 50 mm
